Laboratory results: patent publication US20150299188A1, “HETEROCYCLIC COMPOUND” (priority 2012, published 2015)

System: FLAP (5-lipoxygenase activating protein)
Test: In vitro binding test: displacement of [3H]-7-chloro-3-(5-((3-fluoropyridin-2-yl)methoxy)-2-methylphenyl)-3,4-dihydroquinazolin-2(1H)-one from Sf9 microsome fractions
Set-up: species or system human and mouse
Details: Sf9 microsome fractions expressing FLAP; 100% = radioligand binding with 10 μM sodium 3-(3-(tert-butylsulfanyl)-1-(4-chlorobenzyl)-5-isopropyl-1H-indol-2-yl)-2,2-dimethylpropanoate, 0% = DMSO; test compound concentration not given
Procedure: As an assay buffer, 100 mM Tris-HCl, pH 7.5, 140 mM NaCl, 2 mM EDTA, 0.5 mM dithiothreitol, 5% glycerol, 0.05% Tween20 was used. Sf9 microsome fractions expressing human and mouse FLAPs were dispensed by 50 μL to a 96-well plate at 2 μg/mL. Furthermore, a test compound (25 μL) diluted 4-fold of the final concentration with the assay buffer was added and mixed therewith, and the mixture was incubated at room temperature for 10 min. Furthermore, 120 nM [^3H]-7-chloro-3-(5-((3-fluoropyridin-2-yl)methoxy)-2-methylphenyl)-3,4-dihydroquinazolin-2(1H)-one was added by 25 μL, and mixed therewith, and the mixture was incubated at room temperature for 60 min. Thereafter, the cells were transferred to a 96-well GF/B Unifilter plate with a FilterMate cell harvester, and washed 3 times with a wash buffer (100 mM Tris-HCl pH 7.5, 0.05% Tween20, 200 μL) cooled to 4° C. The GF/B Unifilter plate was dried at 37° C., Microscint 0 was added and measured by TopCount NXT (PerkinElmer). As for the inhibitory activity, the inhibitory rate was calculated wherein the [^3H]-7-chloro-3-(5-((3-fluoropyridin-2-yl)methoxy)-2-methylphenyl)-3,4-dihydroquinazolin-2(1H)-one binding amount in the presence of 10 μM sodium 3-(3-(tert-butylsulfanyl)-1-(4-chlorobenzyl)-5-isopropyl-1H-indol-2-yl)-2,2-dimethylpropanoate was 100%, and the [^3H]-7-chloro-3-(5-((3-fluoropyridin-2-yl)methoxy)-2-methylphenyl)-3,4-dihydroquinazolin-2(1H)-one binding amount in the presence of DMSO was 0%.

Row | SMILES | inhibitory rate (%)
1 | O=C(NC1COC1)c1cc2c(c(C3CC3)n1)CN(c1cc3c(cc1Cl)CCC(c1ncccc1F)O3)C(=O)N2 (centres unmarked) [Example 98, 3-(6-chloro-2-(3-fluoropyridin-2-yl)-3,4-dihydro-2H-chromen-7-yl)-5-cyclopropyl-N-(oxetan-3-yl)-2-oxo-1,2,3,4-tetrahydropyrido[4,3-d]pyrimidine-7-carboxamide] | 94
2 | COCCNC(=O)c1cc2c(c(C3CC3)n1)CN(c1cc3c(cc1Cl)CCC(c1ncccc1F)O3)C(=O)N2 (centres unmarked) [Example 97, 3-(6-chloro-2-(3-fluoropyridin-2-yl)-3,4-dihydro-2H-chromen-7-yl)-5-cyclopropyl-N-(2-methoxyethyl)-2-oxo-1,2,3,4-tetrahydropyrido[4,3-d]pyrimidine-7-carboxamide] | 90
3 | Cn1c(=O)n(-c2ccc3c(c2)OC(c2c(F)cccc2F)CC3)c(=O)c2ccccc21 (centres unmarked) [Example 329, 3-(2-(2,6-difluorophenyl)-3,4-dihydro-2H-chromen-7-yl)-1-methylquinazoline-2,4(1H,3H)-dione] | 103
4 | O=C1Nc2cc(-c3ncco3)nc(C3CC3)c2CN1c1cc2c(cc1Cl)CCC(c1ncccc1F)O2 (centres unmarked) [Example 85, 3-(6-chloro-2-(3-fluoropyridin-2-yl)-3,4-dihydro-2H-chromen-7-yl)-5-cyclopropyl-7-(1,3-oxazol-2-yl)-3,4-dihydropyrido[4,3-d]pyrimidin-2(1H)-one] | 102
5 | Cc1cc2c(cc1N1Cc3c(Cl)cnc(C)c3NC1=O)OC(c1ncccc1F)CC2 (centres unmarked) [Example 129, 5-chloro-3-(2-(3-fluoropyridin-2-yl)-6-methyl-3,4-dihydro-2H-chromen-7-yl)-8-methyl-3,4-dihydropyrido[3,4-d]pyrimidin-2(1H)-one] | 114
6 | Cc1cc2c(cc1N1Cc3c(Cl)cnc(N(C)C)c3NC1=O)OC(c1ncccc1F)CC2 (centres unmarked) [Example 165, 5-chloro-8-(dimethylamino)-3-(2-(3-fluoropyridin-2-yl)-6-methyl-3,4-dihydro-2H-chromen-7-yl)-3,4-dihydropyrido[3,4-d]pyrimidin-2(1H)-one] | 104
7 | COc1ncc(C(F)(F)F)c2c1NC(=O)N(c1cc3c(cc1C)CCC(c1ncccc1F)O3)C2 (centres unmarked) [Example 107, 3-(2-(3-fluoropyridin-2-yl)-6-methyl-3,4-dihydro-2H-chromen-7-yl)-8-methoxy-5-(trifluoromethyl)-3,4-dihydropyrido[3,4-d]pyrimidin-2(1H)-one] | 93
8 | COc1ncnc2c1CN(c1cc(OCc3ncccc3F)ccc1C)C(=O)N2 [Example 319, 3-(5-((3-fluoropyridin-2-yl)methoxy)-2-methylphenyl)-5-methoxy-3,4-dihydropyrimido[4,5-d]pyrimidin-2(1H)-one] | 52
9 | N#Cc1ncc(Cl)c2c1NC(=O)N(c1cc3c(cc1Cl)CCC(c1ncccc1F)O3)C2 (centres unmarked) [Example 157, 5-chloro-3-(6-chloro-2-(3-fluoropyridin-2-yl)-3,4-dihydro-2H-chromen-7-yl)-2-oxo-1,2,3,4-tetrahydropyrido[3,4-d]pyrimidine-8-carbonitrile] | 104
10 | CC(C)(O)c1ccc2c(c1)NC(=O)N(c1cc(OCc3c(F)cccc3F)ccc1Cc1ccccn1)C2 [Example 316, 3-(5-((2,6-difluorobenzyl)oxy)-2-(pyridin-2-ylmethyl)phenyl)-7-(2-hydroxypropan-2-yl)-3,4-dihydroquinazolin-2(1H)-one] | 50
11 | O=C1Nc2c(ccnc2C(F)(F)F)CN1c1cc2c(cc1Cl)CCC(c1ncccc1F)O2 (centres unmarked) [Example 66, 3-(6-chloro-2-(3-fluoropyridin-2-yl)-3,4-dihydro-2H-chromen-7-yl)-8-(trifluoromethyl)-3,4-dihydropyrido[3,4-d]pyrimidin-2(1H)-one] | 98
12 | Cc1ccc(OCc2ncccc2F)cc1-n1c(=O)[nH]c2cc(C(F)(F)F)ccc2c1=O [Example 357, 3-(5-((3-fluoropyridin-2-yl)methoxy)-2-methylphenyl)-7-(trifluoromethyl)quinazoline-2,4(1H,3H)-dione] | 104
13 | Cc1ccc(OCc2ccccc2F)cc1N1Cc2ccccc2NC1=O [Example 172, 3-(5-((2-fluorobenzyl)oxy)-2-methylphenyl)-3,4-dihydroquinazolin-2(1H)-one] | 80
14 | O=C1Nc2cccc(Cl)c2CN1c1cc(OCc2ncccc2F)c(F)cc1Cl [Example 287, 5-chloro-3-(2-chloro-4-fluoro-5-((3-fluoropyridin-2-yl)methoxy)phenyl)-3,4-dihydroquinazolin-2(1H)-one] | 95
15 | Cc1cc2c(cc1N1Cc3cnccc3NC1=O)OC(c1ncccc1F)CC2 (centres unmarked) [Example 29, 3-(2-(3-fluoropyridin-2-yl)-6-methyl-3,4-dihydro-2H-chromen-7-yl)-3,4-dihydropyrido[4,3-d]pyrimidin-2(1H)-one] | 99
16 | O=C1Nc2ccccc2CN1c1cc(OCc2ncccc2F)ccc1C(F)(F)F [Example 214, 3-(5-((3-fluoropyridin-2-yl)methoxy)-2-(trifluoromethyl)phenyl)-3,4-dihydroquinazolin-2(1H)-one] | 110
17 | Cc1ccc(OCc2ncccc2Br)cc1-n1c(=O)[nH]c2ccccc2c1=O [Example 371, 3-(5-((3-bromopyridin-2-yl)methoxy)-2-methylphenyl)quinazoline-2,4(1H,3H)-dione] | 96
18 | O=C1Nc2nccc(OCC(F)(F)F)c2CN1c1cc2c(cc1Cl)CCC(c1ncccc1F)O2 (centres unmarked) [Example 61, 3-(6-chloro-2-(3-fluoropyridin-2-yl)-3,4-dihydro-2H-chromen-7-yl)-5-(2,2,2-trifluoroethoxy)-3,4-dihydropyrido[2,3-d]pyrimidin-2(1H)-one] | 91
19 | O=C1Nc2c(C3CC3)ncc(F)c2CN1c1cc2c(cc1Cl)CCC(c1ncccc1F)O2 (centres unmarked) [Example 166, 3-(6-chloro-2-(3-fluoropyridin-2-yl)-3,4-dihydro-2H-chromen-7-yl)-8-cyclopropyl-5-fluoro-3,4-dihydropyrido[3,4-d]pyrimidin-2(1H)-one] | 106
20 | Cc1ccc(OCc2c(F)cccc2F)cc1-n1c(=O)[nH]c2cc(C(C)(C)O)ccc2c1=O [Example 336, 3-(5-((2,6-difluorobenzyl)oxy)-2-methylphenyl)-7-(2-hydroxypropan-2-yl)quinazoline-2,4(1H,3H)-dione] | 108
21 | Cc1ccc(OCc2c(F)cccc2F)cc1N1Cc2ccc(CO)cc2NC1=O [Example 181, 3-(5-((2,6-difluorobenzyl)oxy)-2-methylphenyl)-7-(hydroxymethyl)-3,4-dihydroquinazolin-2(1H)-one] | 91
22 | O=c1[nH]c2ccccc2c(=O)n1-c1cc2c(cc1Cl)CCC(c1ncccc1F)O2 (centres unmarked) [Example 372, 3-(6-chloro-2-(3-fluoropyridin-2-yl)-3,4-dihydro-2H-chromen-7-yl)quinazoline-2,4(1H,3H)-dione] | 95
23 | Cc1ccc(OCc2ncccc2F)cc1N1Cc2ccc(C(=O)N3CCOCC3)cc2NC1=O [Example 288, 3-(5-((3-fluoropyridin-2-yl)methoxy)-2-methylphenyl)-7-(morpholin-4-ylcarbonyl)-3,4-dihydroquinazolin-2(1H)-one] | 104
